Experimental data reported in US20120276245A1, “METHOD FOR IMPROVED FERMENTATION” (STICHTING TOP INSTITUTE FOOD AND NUTRITION, priority 2009, published 2012).
Read-outs that look alike come from different tables or passages of the source.

How the values were obtained:
[1] = test system: mixed culture of S. thermophilus and L. bulgaricus; experiment: Intervention study: acidification of mixed culture in reconstituted skim milk; format: cell-based; conditions: 37° C., 19 h, stimulatory effects less than with the mono-cultures
Experimental: Cultures of S. thermophilus, L. bulgaricus and a mixed culture were prepared in 0.8 volume reconstituted skim milk with 0.2 volume of a solution with compounds: Na-pyruvate (1.82 mM), Na-formate (1.47 mM), folic acid (1 mM), nucleobases (10 mg/L each) (all representing purine and pyrimidine metabolism), Tween-20 (105.9 μM) (as a supply of lauric acid), Tween-80 (110 mg/L) (as a supply of oleic acid). Here after these compounds are referred to as ‘interaction compounds’. The LCFAs oleic acid and lauric acid are poorly soluble and therefore we used Tween-20 and Tween-80. The effect of each of all interaction compounds on growth and acidification was tested in a single addition and a single omission strategy. Paired comparisons were made of a single compound versus nothing added (neg. control), and of all compounds minus one added versus all (pos. control). Acidification of quadruplicate cultures of 250 μL, was measured at 37° C. for 19 h in hydroplates (PreSens—Precision Sensing GmbH, Germany) where after CFU counts were determined using a rapid miniplating method (36). Significant differences in acidification were determined by comparing the maximal acidification rate using a two-tailed Students t-test (p=0.05). Similarly, significant differences were calculated between the final pH values and between the colony-forming units. […]

L. bulgaricus = experiment: Intervention study: acidification of L. bulgaricus mono-culture in reconstituted skim milk; format: cell-based, Lactobacillus delbrueckii subsp. bulgaricus; conditions: 37° C., 19 h
Experimental: (§1) Cultures of S. thermophilus, L. bulgaricus and a mixed culture were prepared in 0.8 volume reconstituted skim milk with 0.2 volume of a solution with compounds: Na-pyruvate (1.82 mM), Na-formate (1.47 mM), folic acid (1 mM), nucleobases (10 mg/L each) (all representing purine and pyrimidine metabolism), Tween-20 (105.9 μM) (as a supply of lauric acid), Tween-80 (110 mg/L) (as a supply of oleic acid). Here after these compounds are referred to as ‘interaction compounds’. The LCFAs oleic acid and lauric acid are poorly soluble and therefore we used Tween-20 and Tween-80. The effect of each of all interaction compounds on growth and acidification was tested in a single addition and a single omission strategy. Paired comparisons were made of a single compound versus nothing added (neg. control), and of all compounds minus one added versus all (pos. control). Acidification of quadruplicate cultures of 250 μL, was measured at 37° C. for 19 h in hydroplates (PreSens—Precision Sensing GmbH, Germany) where after CFU counts were determined using a rapid miniplating method (36). Significant differences in acidification were determined by comparing the maximal acidification rate using a two-tailed Students t-test (p=0.05). Similarly, significant differences were calculated between the final pH values and between the colony-forming units. A higher cell count, lower final pH, higher acidification rate and a shorter time to reach this rate are considered stimulatory effect of the intervention compared to the control.

[2] = test system: pfl (pyruvate formate lyase gene); conditions: mixed culture supplemented with formic acid
Excerpt: (§2) Microarrays were spotted on the Agilent 8x 15K platform (Agilent Technologies, Santa Clara, Calif., USA) with a custom probe design (AMADID 015342) comprising the sequences of both S. thermophilus CNRZ1066 (released by NCBI, genbank accession no. NC 006449) and L. bulgaricus ATCC BAA-365 (released by JGI, genbank accession no. NC 008529). The probes were designed with the objective to minimize cross-hybridization: the probes were species-specific, i.e. all probes were designed as 60-mers with a target score of 100% to the target gene, allowing no binding of cDNA that is 1 base different (mismatch) if the correct hybridization temperature (65° C.) and washing temperature (37° C.) are used. In total there are 5438 probes representing 1899 genes of S. thermophilus and 4028 spots representing 1709 genes of L. bulgaricus. Most genes are represented by 3 probes or more. Only 55 genes in S. thermophilus and 77 in L. bulgaricus are represented by one probe and only 5 genes of S. thermophilus and 31 genes of L. bulgaricus are lacking. The selectivity of strain specific gene detection was tested by a series of transcriptome profiling experiments of samples from MRS-grown mono-cultures of both strains. […] They were excluded from further analysis.
(§3) The high protein content of milk and the polysaccharide production by the grown microorganisms make cell harvesting problematic. Furthermore, sampling and quenching need to be carried out rapidly in order to prevent the introduction of technical errors in a transcriptomics experiment. Several procedures have been developed to “clear” the milk to enable cell harvest by centrifugation without the contamination with milk solids. However, milk cleaning procedures are time consuming and require drastic changes in pH and the addition of large quantities of sodium citrate.

[3] = test system: genes involved in biosynthesis of purines and folic acid cycling; conditions: formic acid supplied, both species
Excerpt: as §2, §3

[4] = test system: pflA (pyruvate formate lyase gene); conditions: mixed culture supplemented with formic acid
Excerpt: as §2, §3

S. thermophilus = experiment: Intervention study: acidification and growth of S. thermophilus mono-culture in reconstituted skim milk; format: cell-based, Streptococcus thermophilus; conditions: for Acidification by S. thermophilus: mono-culture in reconstituted skim milk, 37° C., 19 h, compounds listed in decreasing order of stimulation: formic acid, pyruvic acid, folic acid, Tween-20; for Growth of S. thermophilus in monoculture: in the absence of Lactobacillus bulgaricus
Experimental: as §1

Molecule | Acidification of the mixed cultures [1] | L. bulgaricus acidification (L. bulgaricus) | Expression of pfl down-regulated when formic acid was supplied [2] [fold] | Expression of genes involved in biosynthesis of purines and folic acid cycling ([3]; early (second) exponential phase) | Expression of genes involved in biosynthesis of purines and folic acid cycling ([3]; mid exponential phase) | Expression of pflA down-regulated when formic acid was supplied [4] [fold] | Acidification by S. thermophilus (S. thermophilus) | Growth of S. thermophilus in monoculture (S. thermophilus)
O=CO [formic acid] | still stimulated | stimulated the most | 3.8 | lower | higher | 5.7 | stimulated | –
Tween-80 | – | small stimulatory effect | – | – | – | – | – | –
Nc1nc2ncc(CNc3ccc(C(=O)N[C@@H](CCC(=O)O)C(=O)O)cc3)nc2c(=O)[nH]1 [folic acid] | – | small stimulatory effect | – | – | – | – | stimulated | stimulate growth
CC(=O)C(=O)O [pyruvic acid] | still stimulated | small stimulatory effect | – | – | – | – | stimulated | stimulate growth
Tween-20 | – | small stimulatory effect | – | – | – | – | stimulated | stimulate growth
